In US6462055B2, “Alpha-methylbenzyl-containing thiourea inhibitors of herpes viruses containing a phenylenediamine group” (Wyeth, priority 1998, dated 2002):
Values after ≈ are worked out from the molar mass of the structure shown.

How the values were obtained:
HSV-1 = assay: HSV Antiviral (ELISA) Assay in Vero cells; format: cell-based, herpes simplex virus type 1; conditions: Human alphaherpesvirus 1; HSV-1, Vero cells; read-out: IC50 (ug/ml) HSV
Protocol: Vero cells (ATCC #CCL-81) are plated on 96-well tissue culture plates at 3.5×10^4 cells per 100 μl tissue culture DMEM (Dulbeccos modified Eagle media) supplemented with 2% fetal bovine serum (FBS) in each well. After overnight incubation @ 37° C. (in 5% CO2) and 30 minutes prior to infection with HSV-1 (multiplicity of infection equal to 0.006), cells are either untreated, or treated with test compound (multiple concentrations) or reference standard drug control. After approximately 24 hours post-infection incubation @ 37° C. (in 5% CO2), cells are fixed for ELISA assay. The primary antibody is murine anti-HSV glycoprotein D monoclonal primary antibody and the secondary antibody is goat anti-mouse IgG linked to β-galactosidase. Thus the extent of viral replication is determined by assessing β-galactosidase activity by quantifying the generation of the 4-methyl umbelliferone fluorescent cleavage product after addition of the methyl umbelliferyl-β-D-galactoside (Sigma #M1633) substrate on a microfluorimeter (365 nm for excitation and 450 nm for emission). Antiviral activity (IC50) of the test compound is determined by comparing the flourescence obtained in absence of compound to that obtained in the presence of compound.

VZV strain Ellen = assay: VZV Antiviral (ELISA) Assay in human foreskin fibroblast cells; format: cell-based, varicella-zoster virus; conditions: Human alphaherpesvirus 3, Fibroblast; for inhibition at 10 µg/mL: read-out: % inhibition 10 ug/ml VZV, 10 ug/ml; for IC50: read-out: IC50 (ug/ml) VZV
Protocol: For the generation of stock VZV to be used in the assay, VZV strain Ellen (ATCC #VR-1367) is used to infect human foreskin fibroblast (HFF) cells at low multiplicity (less than 0.1) and incubated overnight at 37° C. in 5% CO2. After the overnight incubation, the mixture of uninfected and VZV-infected HFF infected cells are then harvested and added to each well of 96-well plates (3.5×10^4 cells in 100 μl DMEM supplemented with 2% FBS) which contain test compound or the reference standard drug control (in 100 μl DMEM supplemented with 2% FBS per well). These cells are incubated for three days at 37° C. in 5% CO2, then fixed for ELISA assay. The primary antibody is murine anti-VZV glycoprotein II monoclonal antibody (Applied Biosystems, Inc. #13-145-100) and the secondary antibody is goat anti-mouse IgG linked to β-galactosidase. Thus the extent of viral replication is determined by assessing β-galactosidase activity by quantifying the generation of the 4-methyl umbelliferone fluorescent cleavage product after addition of the methyl umbelliferyl-β-D-galactoside (Sigma #M1633) substrate on a microfluorimeter (365 nm for excitation and 450 nm for emission). Antiviral activity (IC50) of the test compound is determined by comparing the flourescence obtained in absence of compound to that obtained in the presence of compound.

With `COc1cccc(C(=O)Nc2ccc(NC(=S)Nc3ccc(OC)c(Cl)c3)cc2)c1` [Example 819, N-{4-[3-(3-Chloro-4-methoxy-phenyl)-thioureido]-phenyl}-3-methoxy-benzamide] the IC50 (HSV-1) was 6 µg/mL (≈ 13.6 µM), the inhibition at 10 µg/mL (VZV strain Ellen) was 93% and the IC50 (VZV strain Ellen) was 2.5 µg/mL (≈ 5.66 µM).

In the case of `COc1ccc(C(=O)Nc2ccc(NC(=S)Nc3ccc(OC)c(Cl)c3)cc2)cc1` [Example 820, N-{4-[3-(3-Chloro-4-methoxy-phenyl)-thioureido]-phenyl}-4-methoxy-benzamide], the IC50 (HSV-1) is reported as 4 µg/mL (≈ 9.05 µM), the inhibition at 10 µg/mL (VZV strain Ellen) is reported as 20% and the IC50 (VZV strain Ellen) is reported as > 10 µg/mL.

For `COc1cc(OC)c(NC(=S)Nc2ccc(NC(=O)c3ccccc3F)cc2)cc1Br` [Example 827, N-{4-[3-(5-Bromo-2,4-dimethoxy-phenyl)-thioureido]-phenyl}-2-fluoro-benzamide], the IC50 (HSV-1) was 0.2 µg/mL (≈ 0.397 µM), the inhibition at 10 µg/mL (VZV strain Ellen) was 70% and the IC50 (VZV strain Ellen) was 3.5 µg/mL (≈ 6.94 µM).

For `CSc1ccc(NC(=S)Nc2ccc(NC(=O)c3ccccc3F)cc2)cc1Cl` [Example 847, N-{4-[3-(3-Chloro-4-methylsulfanyl-phenyl)-thioureido]-phenyl}-2-fluoro-benzamide], the IC50 (HSV-1) was 0.4 µg/mL (≈ 0.897 µM), the inhibition at 10 µg/mL (VZV strain Ellen) was 65% and the IC50 (VZV strain Ellen) was > 10 µg/mL.

In the case of `COc1cc(C)c(Cl)cc1NC(=S)Nc1ccc(NC(=O)c2ccccc2C)cc1` [Example 850, N-{4-[3-(5-Chloro-2-methoxy-4-methyl-phenyl)-thioureido]-phenyl}-2-methyl-benzamide], the IC50 (HSV-1) is reported as 0.09 µg/mL (≈ 0.205 µM), the inhibition at 10 µg/mL (VZV strain Ellen) is reported as 28% and the IC50 (VZV strain Ellen) is reported as 5 µg/mL (≈ 11.4 µM).

With `CN(C)c1ccc(NC(=S)Nc2ccc(NC(=O)c3ccccc3F)cc2)cc1Cl` [Example 852, N-{4-[3-(3-Chloro-4-dimethylamino-phenyl)-thioureido]-phenyl}-2-fluoro-benzamide] the IC50 (HSV-1) was 4 µg/mL (≈ 9.03 µM), the inhibition at 10 µg/mL (VZV strain Ellen) was 80% and the IC50 (VZV strain Ellen) was 6.5 µg/mL (≈ 14.7 µM).

With `CN(c1ccc(NC(=S)Nc2ccc(NC(=O)c3ccccc3F)cc2)cc1Cl)C1CCN(Cc2ccccc2)C1` (centres unmarked) [Example 857, N-[4-(3-{4-[(1-Benzyl-pyrrolidin-3-yl)-methyl-amino]-3-chloro-phenyl}-thioureido)-phenyl]-2-fluoro-benzamide] the IC50 (HSV-1) was 2 µg/mL (≈ 3.4 µM), the inhibition at 10 µg/mL (VZV strain Ellen) was 80% and the IC50 (VZV strain Ellen) was 7 µg/mL (≈ 11.9 µM).

`CC(O)c1ccc(NC(=S)Nc2ccc(NC(=O)c3ccccc3F)cc2)cc1Cl` (centres unmarked) [Example 865, N-(4-{3-[3-Chloro-4-(1-hydroxy-ethyl)-phenyl]-thioureido}-phenyl)-2-fluoro-benzamide] was tested, and the IC50 (HSV-1) was 4 µg/mL (≈ 9.01 µM), the inhibition at 10 µg/mL (VZV strain Ellen) was 52% and the IC50 (VZV strain Ellen) was > 10 µg/mL.

With `COc1c(Cl)cc(NC(=S)Nc2ccc(NC(=O)c3cccc(F)c3)cc2)cc1Cl` [Example 872, N-{4-[3-(3,5-Dichloro-4-methoxy-phenyl)-thioureido]-phenyl}-3-fluoro-benzamide] the IC50 (HSV-1) was 4 µg/mL (≈ 8.61 µM), the inhibition at 10 µg/mL (VZV strain Ellen) was 28% and the IC50 (VZV strain Ellen) was > 10 µg/mL.

For `COc1c(Cl)cc(NC(=S)Nc2ccc(NC(=O)c3ccccc3F)cc2)cc1Cl` [Example 874, N-{4-[3-(3,5-Dichloro-4-methoxy-phenyl)-thioureido]-phenyl}-2-fluoro-benzamide], the IC50 (HSV-1) was 5 µg/mL (≈ 10.8 µM), the inhibition at 10 µg/mL (VZV strain Ellen) was 75% and the IC50 (VZV strain Ellen) was 3.5 µg/mL (≈ 7.54 µM).

`COc1cccc(C(=O)Nc2ccc(NC(=S)Nc3cc(Cl)c(OC)c(Cl)c3)cc2)c1` [Example 875, N-{4-[3-(3,5-Dichloro-4-methoxy-phenyl)thioureido]-phenyl}-3-methoxy-benzamide] was tested, and the IC50 (HSV-1) was 6 µg/mL (≈ 12.6 µM), the inhibition at 10 µg/mL (VZV strain Ellen) was 20% and the IC50 (VZV strain Ellen) was > 10 µg/mL.

With `COc1ccc(C(=O)Nc2ccc(NC(=S)Nc3cc(Cl)c(OC)c(Cl)c3)cc2)cc1` [Example 880, N-{4-[3-(3,5-Dichloro-4-methoxy-phenyl)-thioureido]-phenyl}-4-methoxy-benzamide] the IC50 (HSV-1) was > 10 µg/mL, the inhibition at 10 µg/mL (VZV strain Ellen) was 30% and the IC50 (VZV strain Ellen) was > 10 µg/mL.

For `O=C(Nc1ccc(NC(=S)Nc2cccc(Cl)c2Cl)cc1)c1ccccc1F` [Example 927, N-{4-[3-(2,3-Dichloro-phenyl)-thioureido]-phenyl}-2-fluoro-benzamide], the IC50 (HSV-1) was 5 µg/mL (≈ 11.5 µM) and the inhibition at 10 µg/mL (VZV strain Ellen) was 1%.

With `O=C(Nc1ccc(NC(=S)Nc2ccccc2Cl)cc1)c1ccccc1F` [Example 948, N-{4-[3-(2-Chloro-phenyl)-thioureido]-phenyl}-2-fluoro-benzamide] the IC50 (HSV-1) was 6 µg/mL (≈ 15 µM), the inhibition at 10 µg/mL (VZV strain Ellen) was 4% and the IC50 (VZV strain Ellen) was > 10 µg/mL.

`CC(NC(=S)Nc1ccc(NC(=O)c2nccc3ccccc23)cc1)c1ccc(Br)cc1` (centres unmarked) [Example 978, Isoquinoline-1-carboxylic acid (4-{3-[1-(4-bromo-phenyl)ethyl]-thioureido}-phenyl)-amide] was tested, and the IC50 (HSV-1) was > 10 µg/mL and the IC50 (VZV strain Ellen) was 0.04 µg/mL (≈ 0.0791 µM).

With `CC(NC(=S)Nc1ccc(NC(=O)c2nccc3ccccc23)cc1)c1ccc(C#N)cc1` (centres unmarked) [Example 979, Isoquinoline-1-carboxylic acid (4-{3-[1-(4-cyano-phenyl)-ethyl]-thioureido}-phenyl)-amide] the IC50 (HSV-1) was > 10 µg/mL and the IC50 (VZV strain Ellen) was 0.13 µg/mL (≈ 0.288 µM).

`CC(NC(=S)Nc1ccc(NC(=O)c2cc3ccccc3o2)cc1)c1ccc(Br)cc1` (centres unmarked) [Example 982, Benzofuran-2-carboxylic acid (4-{3-[1-(4-bromo-phenyl)-ethyl]-thioureido}-phenyl)-amide] was tested, and the IC50 (HSV-1) was > 10 µg/mL and the IC50 (VZV strain Ellen) was 0.1 µg/mL (≈ 0.202 µM).

For `CC(NC(=S)Nc1ccc(NC(=O)c2cc3ccccc3o2)cc1)c1ccc(C#N)cc1` (centres unmarked) [Example 983, Benzofuran-2-carboxylic acid (4-{3-[1-(4-cyano-phenyl)-ethyl]-thioureido}-phenyl)-amide], the IC50 (HSV-1) was > 10 µg/mL and the IC50 (VZV strain Ellen) was 0.6 µg/mL (≈ 1.36 µM).

`CC(NC(=S)Nc1ccc(NC(=O)c2cc3ccccc3cn2)cc1)c1ccc(F)cc1` (centres unmarked) [Example 984, Isoquinoline-3-carboxylic acid (4-{3-[1-(4-fluoro-phenyl)ethyl]-thioureido}-phenyl)-amide] gave an IC50 (HSV-1) of 7.2 µg/mL (≈ 16.2 µM) and an IC50 (VZV strain Ellen) of 0.08 µg/mL (≈ 0.18 µM).

For `CC(NC(=S)Nc1ccc(NC(=O)c2cc3ccccc3cn2)cc1)c1ccc(C#N)cc1` (centres unmarked) [Example 986, Isoquinoline-3-carboxylic acid (4-{3-[1-(4-cyano-phenyl)-ethyl]-thioureido}-phenyl)-amide], the IC50 (HSV-1) was > 10 µg/mL and the IC50 (VZV strain Ellen) was 0.05 µg/mL (≈ 0.111 µM).

For `CC(NC(=S)Nc1ccc(NC(=O)c2cc3ccccc3cn2)cc1)c1ccc(Br)cc1` (centres unmarked) [Example 987, Isoquinoline-3-carboxylic acid (4-{3-[1-(4-bromo-phenyl)-ethyl]-thioureido}-phenyl)-amide], the IC50 (HSV-1) was 3 µg/mL (≈ 5.94 µM) and the IC50 (VZV strain Ellen) was 0.046 µg/mL (≈ 0.091 µM).

For `CC(NC(=S)Nc1ccc(NC(=O)c2cccc3cccnc23)cc1)c1ccc(F)cc1` (centres unmarked) [Example 991, Quinoline-8-carboxylic acid (4-{3-[1-(4-fluoro-phenyl)-ethyl]-thioureido}-phenyl)-amide], the IC50 (HSV-1) was > 10 µg/mL and the IC50 (VZV strain Ellen) was 0.1 µg/mL (≈ 0.225 µM).

For `COc1ccc(C(C)NC(=S)Nc2ccc(NC(=O)c3ccccc3F)cc2)cc1Cl` (centres unmarked) [Example 1000, N-(4-{3-[1-(3-Chloro-4-methoxy-phenyl)-ethyl]-thioureido}-phenyl)-2-fluoro-benzamide], the IC50 (HSV-1) was > 10 µg/mL and the IC50 (VZV strain Ellen) was 6 µg/mL (≈ 13.1 µM).

`C[C@H](NC(=S)Nc1ccc(NC(=O)c2ccccc2F)cc1)c1ccc(Br)cc1` [Example 1004, (S)-N-(4-{3-[1-(4-Bromo-phenyl)-ethyl]-thioureido}-phenyl)-2-fluoro-benzamide] was tested, and the IC50 (HSV-1) was > 10 µg/mL and the IC50 (VZV strain Ellen) was 0.06 µg/mL (≈ 0.127 µM).

With `C[C@@H](NC(=S)Nc1ccc(NC(=O)c2ccccc2F)cc1)c1ccc(Br)cc1` [Example 1005, N-(4-{3-[(1R)-1-(4-Bromo-phenyl)-ethyl]-thioureido}-phenyl)-2-fluoro-benzamide] the IC50 (HSV-1) was 2.9 µg/mL (≈ 6.14 µM) and the IC50 (VZV strain Ellen) was 4.3 µg/mL (≈ 9.1 µM).

In the case of `CC(NC(=S)Nc1ccc(NC(=O)c2ccccc2F)cc1)c1ccc(S(=O)(=O)N(C)C)cc1` (centres unmarked) [Example 1008, N-(4-{3-[1-(4-Dimethylsulfamoyl-phenyl)-ethyl]-thioureido}-phenyl)-2-fluoro-benzamide], the IC50 (HSV-1) is reported as > 10 µg/mL and the IC50 (VZV strain Ellen) is reported as > 10 µg/mL.

`Cc1ccc([C@H](C)NC(=S)Nc2ccc(NC(=O)c3ccccc3F)cc2)cc1` [Example 1011, 2-Fluoro-N-{4-[3-((1S)-1-p-tolyl-ethyl)-thioureido]-phenyl}-benzamide] was tested, and the IC50 (HSV-1) was > 10 µg/mL and the IC50 (VZV strain Ellen) was 0.55 µg/mL (≈ 1.35 µM).

`Cc1ccc([C@@H](C)NC(=S)Nc2ccc(NC(=O)c3ccccc3F)cc2)cc1` [Example 1012, 2-Fluoro-N-{4-[3-((1R)-1-p-tolyl-ethyl)-thioureido]-phenyl}-benzamide] was tested, and the IC50 (HSV-1) was > 10 µg/mL and the IC50 (VZV strain Ellen) was > 7.5 µg/mL.

For `C[C@H](NC(=S)Nc1ccc(NC(=O)c2ccccc2F)cc1)c1ccccc1` [Example 1013, 2-Fluoro-N-{4-[3-((1S)-1-phenyl-ethyl)-thioureido]-phenyl}-benzamide], the IC50 (HSV-1) was > 10 µg/mL and the IC50 (VZV strain Ellen) was 0.27 µg/mL (≈ 0.686 µM).
